≈ marks a conversion by molar mass, not a printed value. Read-outs that look alike come from different tables or passages of the source.
What was measured:
Type in all cases: cell-based
[1] = system: Trichophyton mentagrophytes 40004; assay: Broth microdilution MIC (M38-A), filamentous fungi, strain X
Experimental: (§1) For the experiments of the present invention, the dermatophyte-type fungi strains that were obtained from clinical isolates and laboratory isolates, as described in Table 2 as follows, were used:
(§2) The fungal strains were grown on agar potato medium in a sloping chute at a temperature of 30° C. for a period of 7 to 15 days.
(§3) For the experiments, the compound 1-[2-(2,4-dichlorophenyl)-2-{[4-(trifluoromethyl)benzyl]oxy}ethyl]-1H-imidazole (BL-123) in the form of its nitrate salt and miconazole nitrate were used. Both compounds were dissolved in dimethyl sulfoxide (DMSO) to match the final concentration of the compound equal to or less than 1%.
(§4) The methodology used to test the sensitivity of the agent was of broth microdilution according to the method described in Standard M38-A (Reference method for broth dilution tests for determining the sensitivity to antifungal therapy for filamentous fungi; NCCLS, volume 22 No. 16, USA, 2008) as follows.
(§5) The fungus was cultivated pursuant to item 4.1. To the tubes wherein the fungi were grown, 5 mL of saline solution were added in order to extract the fungi from the agar surface. Then, this homogeneous suspension was transferred to a new tube and the colony-forming units (CFUs) were quantified according to counting methods: (i) in Sabouraud dextrose agar plates and (ii) in a Neubauer chamber.
(§6) Then, the fungi strains listed in Table 2 were inoculated in duplicate in a 96-well plate. There were used inocula of from 2 to 6×10^3 CFU/mL of fungi, per well, in a total volume of 0.2 mL of RPMI-1640 (containing L-glutamine and without bicarbonate) buffered at pH 7.0 with MOPS (acid 3-(N-morpholine) 15 propanesulfonic). The procedure was performed in a laminar flow.
(§7) The compounds to be tested were added in a serial dilution, in duplicate, in final concentrations of 16 μg/mL; 8 μg/mL; 4 μg/mL; 2 μg/mL; 1 μg/mL; 0.5 μg/mL; 0.25 μg/mL; 0.125 μg/mL; 0.0625 μg/mL; or 0.03125 μg/mL in culture medium present in each well.
(§8) The incubation of fungi with these compounds was performed by 4, 5, 6 and 7 days at temperatures from 30 to 35° C.
(§9) The fungi quantification was carried out with the growth of fungi in each well being compared to the growth occurred in the negative control by means of a mirror reading. The negative control is represented by fungi grown in culture medium in the absence of the tested compounds. The methodology of this comparison is the numerical rating to which the microdilution well was submitted. […]

[2] = system: Trichophyton mentagrophytes 9533; assay: Broth microdilution MIC (M38-A), filamentous fungi, strain XIII
Experimental: as §1, §2, §3, §4, §5, §6, §7, §8, §9

[3] = system: filamentous fungi strains of Table 2 (n = 13); assay: MIC50, MIC90 and variation of MICs over the 13 strains of Table 2; conditions: for MIC50 / MIC90: n = 13 strains; for MIC50: read-out: MIC50 (minimum inhibitory concentration to inhibit 50% of strains), Average MIC; for MIC90: read-out: MIC90 (minimum inhibitory concentration to inhibit 90% of strains), Average MIC
Experimental: as §1, §2, §3, §4, §5, §6, §7, §8
The fungi quantification was carried out with the growth of fungi in each well being compared to the growth occurred in the negative control by means of a mirror reading. The negative control is represented by fungi grown in culture medium in the absence of the tested compounds. The methodology of this comparison is the numerical rating to which the microdilution well was submitted. In this methodology, value 4 corresponds to no reduction of growth, value 3 corresponds to a slight reduction in growth or approximately 75% of the growth of the negative control, value 2 corresponds to a standout reduction in growth or approximately 50% of growth of negative control; value 1 corresponds to a slight growth or approximately 25% of the growth of the negative control, and value 0 corresponds to optically clear or absence of growth.
In this experiment, the minimum inhibitory concentration (MIC) is considered as the lowest concentration of the agent capable of inhibiting at least 80% of the growth of colony-forming units (CFUs).

Candida albicans 10231 = assay: Broth microdilution MIC (M27-A2), yeast, strain XIV; conditions: Candida albicans; strain XIV 10231, 48 hours incubation; read-out: MIC
Experimental: For the experiments of the present invention (i) yeast strains obtained from clinical isolates and laboratory isolates, and (ii) bacterial strains obtained from laboratory isolates were used, as described in Table 5 as follows. The yeast strains were grown in culture medium Sabouraud Dextrose Agar maintained at a temperature of 35° C. for 48 hours. […] The compounds were dissolved in dimethyl sulfoxide (DMSO) to match the final concentration of the compound equal to or less than 1%. The methodology used to test the sensitivity of the agent was broth microdilution according to the method described in Standard M27-A2 (Reference method for broth dilution tests to determine the sensitivity of yeasts to antifungal therapy-second edition, NCCLS, volume 22 number 15, USA, 2002) as follows. […] Then the suspensions were diluted in culture medium RPMI-1640 (buffered with MOPS 0.165 mol/l) at a final concentration of 50 to 2500 CFU/mL. The diluted suspensions were inoculated in duplicate in a 96-well plate. The procedure was performed in a laminar flow. […] The incubation of fungi with these compounds was carried out for 48 hours at temperature of 30 to 35° C. […] We have agreed in this experiment that the turbid medium is the result of microbial growth and the presence of deposit and a clear medium represents the absence of microbial growth. The minimum inhibitory concentration (MIC) was defined as the lowest tested drug concentration that prevents any degree of […] growth.

[4] = system: Staphylococcus aureus 6538; assay: Broth microdilution MIC (M7-A6), bacteria, strain XVIII; conditions: Staphylococcus aureus; strain XVIII 6538, 24 hours incubation; read-out: MIC
Experimental: For the experiments of the present invention (i) yeast strains obtained from clinical isolates and laboratory isolates, and (ii) bacterial strains obtained from laboratory isolates were used, as described in Table 5 as follows. […] The compounds were dissolved in dimethyl sulfoxide (DMSO) to match the final concentration of the compound equal to or less than 1%. The methodology used to test the sensitivity of the agent was broth microdilution according to the method described in Standard M7-A6 (Methodology of sensitivity tests to antimicrobial agents by dilution for bacteria with aerobic growth-6th Edition: NCCLS, volume 23, No. 2, USA, 2003), as follows. […] Then the suspensions were diluted in Mueller Hinton culture medium to a final concentration of 5×10^4CFU/mL. The diluted suspensions were inoculated in 0.1 mL in duplicates in […] plates. The procedure was performed in a laminar flow. […] Incubation of fungi with these compounds was carried out for 24 hours at a temperature of 30 to 35° C. […] We have agreed in this experiment that the turbid medium is the result of microbial growth and the presence of deposit and a clear medium represents the absence of microbial growth. The minimum inhibitory concentration (MIC) was defined as the lowest tested drug concentration that prevents any degree of bacterial growth.

[5] = 96 h, strain X 40004, reading Day 4, average of four experiments
[6] = 168 h, strain X 40004, reading Day 7, average of four experiments
[7] = 96 h, strain XIII 9533, reading Day 4, average of four experiments
[8] = 168 h, strain XIII 9533, reading Day 7, average of four experiments

Structure (SMILES) | MIC [1, 5] | MIC [1, 6] | MIC [2, 7] | MIC [2, 8] | Inhibitory effect on growth (in words) ([3]; 13 different strains, seven different species) | MIC50 ([3]; 96 h, Day 4) | MIC90 ([3]; 96 h, Day 4) | MIC50 ([3]; 168 h, Day 7) | MIC90 ([3]; 168 h, Day 7) | MIC (Candida albicans 10231) | MIC [4]
FC(F)(F)c1ccc(COC(Cn2ccnc2)c2ccc(Cl)cc2Cl)cc1 (stereo not drawn) [BL-123, 1-[2-(2,4-dichlorophenyl)-2-{[4-(trifluoromethyl)benzyl]oxy}ethyl]-1H-imidazole] | 0.25 µg/mL (≈ 0.602 µM) | 0.5 µg/mL (≈ 1.2 µM) | 0.03 µg/mL (≈ 0.0722 µM) | 0.125 µg/mL (≈ 0.301 µM) | exerts an inhibitory effect on growth | 0.25 µg/mL (≈ 0.602 µM) | 4 µg/mL (≈ 9.63 µM) | 0.5 µg/mL (≈ 1.2 µM) | 8 µg/mL (≈ 19.3 µM) | 8 µg/mL (≈ 19.3 µM) | 4 µg/mL (≈ 9.63 µM)
Clc1ccc(COC(Cn2ccnc2)c2ccc(Cl)cc2Cl)c(Cl)c1 (stereo not drawn) [Miconazole, miconazole, reference compound] | 0.5 µg/mL (≈ 1.2 µM) | 1 µg/mL (≈ 2.4 µM) | 0.06 µg/mL (≈ 0.144 µM) | 0.125 µg/mL (≈ 0.3 µM) |  | 0.5 µg/mL (≈ 1.2 µM) | > 16 µg/mL | 1 µg/mL (≈ 2.4 µM) | > 16 µg/mL | 4 µg/mL (≈ 9.61 µM) | 2 µg/mL (≈ 4.81 µM)

From patent publication US8975289B2, “Benzyl aralkyl ether compounds, method for preparing same, intermediate compounds, use of said compounds, method for treatment and/or prevention, pharmaceutical composition and medicament containing same” (priority 2009, dated 2015)
